# Assay results reported in the Kinase Knowledgebase extract (Sharma et al. 2016).
# Molecular target: CDK2 (human) (UniProt P24941)
# Assay: Enzyme Assay
row,IC50,SMILES
1,< 100 µM,Cc1c(N[C@H]2CC[C@H](N)CC2)nc2ccnn2c1Nc1ccc(-c2cccc(F)c2)cc1
2,< 100 µM,Cc1c(N[C@H]2CC[C@H](N)CC2)nc2ccnn2c1Nc1ccc(OC(F)(F)F)cc1
3,< 100 µM,CCc1c(N[C@H]2CC[C@H](N)CC2)nc2ccnn2c1Nc1cccc(Br)c1
4,< 100 µM,CCOc1ccc(Nc2c(CC)c(N[C@H]3CC[C@H](N)CC3)nc3ccnn23)cc1
5,< 100 µM,CCOc1ccc(Nc2c(C)c(N(CC)C3CCCNC3)nc3ccnn23)cc1 (stereo unspecified)
6,< 100 µM,Cc1c(N[C@H]2CC[C@H](N)CC2)nc2ccnn2c1Nc1ccc(OC2CCCC2)cc1
7,< 100 µM,Cc1c(N[C@H]2CC[C@H](N)CC2)nc2ccnn2c1Nc1ccc(-c2ccccc2Cl)cc1
8,< 100 µM,COc1ccc(-c2ccc(Nc3c(C)c(N[C@H]4CC[C@H](N)CC4)nc4ccnn34)cc2)cc1
9,< 100 µM,Cc1ccc(COc2cccc(Nc3c(C)c(N[C@H]4CC[C@H](N)CC4)nc4ccnn34)c2)cc1
10,< 100 µM,Cc1c(N[C@H]2CC[C@H](N)CC2)nc2ccnn2c1Nc1ccc(CO)cc1
11,< 100 µM,CCOc1ccc(Nc2c(C)c(N[C@H]3CC[C@H](N)CC3)nc3c(C(=O)Nc4ncc[nH]4)cnn23)cc1
12,< 100 µM,Cc1c(N[C@H]2CC[C@H](N)CC2)nc2ccnn2c1Nc1ccc(OCCCl)cc1
13,< 100 µM,CCOC(=O)c1cccc(Nc2c(C)c(N[C@H]3CC[C@H](N)CC3)nc3ccnn23)c1
14,< 100 µM,N[C@H]1CC[C@H](Nc2cc(NCc3cccc(Cl)c3)n3ncc(I)c3n2)CC1
15,< 100 µM,CSc1cnn2c(Nc3ccc(F)c(Cl)c3)cc(N[C@H]3CC[C@H](N)CC3)nc12
16,< 100 µM,CCOc1ccc(Nc2c(C)c(N[C@@H]3CCNC3)nc3ccnn23)cc1
17,< 100 µM,CCOc1ccc(Nc2c(C)c(NC3CCCNC3)nc3c(C#N)cnn23)cc1 (stereo unspecified)
18,< 100 µM,CCc1c(NC2CCNCC2)nc2ccnn2c1Nc1ccc(F)c(Cl)c1
19,< 100 µM,CCc1c(N[C@H]2CC[C@H](N)CC2)nc2ccnn2c1Nc1ccc(OC(F)(F)F)cc1
20,< 100 µM,Cc1c(N[C@H]2CC[C@H](N)CC2)nc2ccnn2c1Nc1cccc2[nH]ccc12
21,< 100 µM,Cc1c(N[C@H]2CC[C@H](N)CC2)nc2ccnn2c1Nc1cccc(OCc2cccc(N)c2)c1
22,< 100 µM,CCOc1ccc(Nc2c(C)c(N[C@H]3CC[C@H](N)CC3)nc3c(C4CCCCC4)cnn23)cc1
23,< 100 µM,Cc1cscc1-c1ccc(Nc2c(C)c(N[C@H]3CC[C@H](N)CC3)nc3ccnn23)cc1
24,< 100 µM,CCc1c(NC2CCCNC2)nc2ccnn2c1Nc1ccc(Oc2ccc(C)cc2)cc1 (stereo unspecified)

row,IC50,SMILES
1,< 100 µM,Cc1c(N[C@H]2CC[C@H](N)CC2)nc2ccnn2c1Nc1ccc(-c2cccnc2)cc1
2,< 100 µM,CCOc1ccc(Nc2c(C(C)C)c(N[C@H]3CC[C@H](N)CC3)nc3ccnn23)cc1
3,< 100 µM,CCc1c(NC2CCCNC2)nc2ccnn2c1Nc1ccc(Br)cc1 (stereo unspecified)
4,< 100 µM,Cc1c(N[C@H]2CC[C@H](N)CC2)nc2ccnn2c1Nc1ccc(-c2ccc(F)cc2)cc1
5,< 100 µM,CCOc1ccc(Nc2c(C)c(N[C@@H]3CCN(Cc4ccccc4)C3)nc3ccnn23)cc1
6,< 100 µM,CCCCOc1ccc(Nc2c(CCCO)c(N[C@H]3CC[C@H](N)CC3)nc3ccnn23)cc1
7,< 100 µM,CCCc1c(N[C@H]2CC[C@H](N)CC2)nc2c(Br)cnn2c1Nc1ccc(F)c(Cl)c1
8,< 100 µM,CCOc1ccc(Nc2c(C)c(N[C@H]3CC[C@H](N)CC3)nc3c(C(=O)Nc4cccnc4)cnn23)cc1
9,< 100 µM,Cc1c(N[C@H]2CC[C@H](N)CC2)nc2ccnn2c1Nc1cccc(OCC2CCCC2)c1
10,< 100 µM,CC(C)c1c(N[C@H]2CC[C@H](N)CC2)nc2ccnn2c1Nc1ccc(F)c(Cl)c1
11,< 100 µM,Cc1ccc(-c2ccc(Nc3c(C)c(N[C@H]4CC[C@H](N)CC4)nc4ccnn34)cc2)cc1
12,< 100 µM,CCOC(=O)c1ccc(Nc2c(CC)c(N[C@H]3CC[C@H](N)CC3)nc3ccnn23)cc1Cl
13,< 100 µM,Cc1c(N[C@H]2CC[C@H](N)CC2)nc2ccnn2c1Nc1ccc(OCCc2ccncc2)cc1
14,< 100 µM,Cc1c(N[C@H]2CC[C@H](N)CC2)nc2ccnn2c1Nc1ccc(-c2ccncc2)cc1
15,< 100 µM,Cc1c(N[C@H]2CC[C@H](N)CC2)nc2ccnn2c1Nc1cccc(OCc2ccccc2Cl)c1
16,< 100 µM,Cc1c(N[C@H]2CC[C@H](N)CC2)nc2ccnn2c1Nc1cccc(OCc2cccc(Cl)c2)c1
17,< 100 µM,Cc1c(N[C@H]2CC[C@H](N)CC2)nc2ccnn2c1Nc1cccc(OC2CCCC2)c1
18,< 100 µM,Cc1cc2cc(Nc3c(C)c(N[C@H]4CC[C@H](N)CC4)nc4ccnn34)ccc2[nH]1
19,< 100 µM,Cc1c(N[C@H]2CC[C@H](N)CC2)nc2ccnn2c1Nc1ccc(C(=O)NCc2ccco2)cc1
20,< 100 µM,Cc1c(N[C@H]2CC[C@H](N)CC2)nc2ccnn2c1Nc1ccc(OCCC2CCCCN2)cc1 (stereo partly specified)
21,< 100 µM,Cc1c(N[C@H]2CC[C@H](N)CC2)nc2ccnn2c1Nc1ccc(OCc2ccccn2)cc1
22,< 100 µM,CCc1c(NC2CCCNC2)nc2ccnn2c1Nc1ccc(OC)c(Cl)c1 (stereo unspecified)
23,< 100 µM,C=CCNc1c(CC)c(N[C@H]2CC[C@H](N)CC2)nc2ccnn12
24,< 100 µM,CCc1c(N[C@H]2CC[C@H](N)CC2)nc2ccnn2c1Nc1cccc(Oc2ccccc2)c1

row,IC50,SMILES
1,< 100 µM,CCOc1ccc(Nc2c(C)c(NC3CCCNC3)nc3c(C(C)C)cnn23)cc1 (stereo unspecified)
2,< 100 µM,CCOc1ccc(Nc2c(-c3ccc(OC)cc3)c(N[C@H]3CC[C@H](N)CC3)nc3ccnn23)cc1
3,< 100 µM,Cc1c(NC2CCCNC2)nc2ccnn2c1Nc1ccc(-c2ccc(N)cc2)cc1 (stereo unspecified)
4,< 100 µM,Cc1c(N[C@H]2CC[C@H](N)CC2)nc2ccnn2c1Nc1cccc(OCc2ccc(Cl)cc2)c1
5,< 100 µM,Cc1cccc(-c2ccc(Nc3c(C)c(N[C@H]4CC[C@H](N)CC4)nc4ccnn34)cc2)c1
6,< 100 µM,Cc1c(NC2CCCNC2)nc2ccnn2c1Nc1ccc(-c2ccsc2)cc1 (stereo unspecified)
7,< 100 µM,CCc1c(N[C@H]2CC[C@H](N)CC2)nc2ccnn2c1Nc1ccc(OC)c(OC)c1
8,< 100 µM,COc1ccccc1-c1ccc(Nc2c(C)c(N[C@H]3CC[C@H](N)CC3)nc3ccnn23)cc1
9,< 100 µM,CCCOc1ccc(Nc2c(C)c(N[C@H]3CC[C@H](N)CC3)nc3ccnn23)cc1
10,< 100 µM,Cc1c(N[C@H]2CC[C@H](N)CC2)nc2ccnn2c1Nc1ccc(N2CCCCC2)cc1
11,< 100 µM,Cc1c(N[C@H]2CC[C@H](N)CC2)nc2ccnn2c1Nc1ccc(OCC2CCCN(C)C2)cc1 (stereo partly specified)
12,< 100 µM,CCOc1ccc(Nc2c(C)c(NC3(CO)CCCC3)nc3ccnn23)cc1
13,< 100 µM,Cc1c(N[C@H]2CC[C@H](N)CC2)nc2ccnn2c1Nc1ccc(-n2ccnc2)cc1
14,< 100 µM,CCc1c(N[C@H]2CC[C@H](N)CC2)nc2ccnn2c1Nc1ccc(OC(F)(F)C(F)F)cc1
15,< 100 µM,Cc1csc(-c2ccc(Nc3c(C)c(N[C@H]4CC[C@H](N)CC4)nc4ccnn34)cc2)c1
16,< 100 µM,Cc1c(N[C@H]2CC[C@H](N)CC2)nc2ccnn2c1Nc1ccc(-c2cccc(CO)c2)cc1
17,< 100 µM,CCOc1ccc(Nc2c(C)c(N[C@H]3CC[C@H](N)CC3)nc3c(C(=O)O)cnn23)cc1
18,< 100 µM,CCOc1ccc(Nc2c(C)c(NC3CCCNC3)nc3c(C4CC4)cnn23)cc1 (stereo unspecified)
19,< 100 µM,CCc1c(N[C@H]2CC[C@H](N)CC2)nc2ccnn2c1Nc1ccc(N2CCCC2=O)cc1
20,< 100 µM,Cc1c(N[C@H]2CC[C@H](N)CC2)nc2ccnn2c1Nc1ccc(-c2cn[nH]c2)cc1
21,< 100 µM,CCOc1ccc(Nc2c(C)c(N[C@H]3CC[C@H](N)CC3)nc3c(C(=O)NCCN(C)C)cnn23)cc1
22,< 100 µM,CCOc1ccc(Nc2c(C)c(N(C)C3CCCNC3)nc3ccnn23)cc1 (stereo unspecified)
23,< 100 µM,Cc1c(N[C@H]2CC[C@H](N)CC2)nc2ccnn2c1Nc1cccc(Cl)c1
24,< 100 µM,CSc1cccc(Nc2c(C)c(N[C@H]3CC[C@H](N)CC3)nc3ccnn23)c1

row,IC50,SMILES
1,< 100 µM,CCOc1ccc(Nc2c(C)c(NC(C)(C)CO)nc3ccnn23)cc1
2,< 100 µM,CCOc1ccc(Nc2c(C)c(NC(CO)C(C)C)nc3ccnn23)cc1 (stereo unspecified)
3,< 100 µM,CCc1c(N[C@H]2CC[C@H](N)CC2)nc2ccnn2c1Nc1ccc(Br)cc1
4,< 100 µM,Cc1c(N[C@H]2CC[C@H](N)CC2)nc2ccnn2c1Nc1ccc2[nH]ccc2c1
5,< 100 µM,Cc1c(N[C@H]2CC[C@H](N)CC2)nc2ccnn2c1Nc1cccc(OCCC2CCCCC2)c1
6,< 100 µM,Cc1c(N[C@H]2CC[C@H](N)CC2)nc2ccnn2c1Nc1ccc(OCc2ccc(Cl)cc2)cc1
7,< 100 µM,CCOc1ccc(Nc2c(C)c(N[C@H]3CCNC3)nc3ccnn23)cc1
8,< 100 µM,Cc1c(N[C@H]2CC[C@H](N)CC2)nc2ccnn2c1Nc1ccc(OCc2ccccc2Cl)cc1
9,< 100 µM,Cc1c(N[C@H]2CC[C@H](N)CC2)nc2ccnn2c1Nc1ccccc1Cl
10,< 100 µM,Cc1c(N[C@H]2CC[C@H](N)CC2)nc2ccnn2c1Nc1ccccc1F
11,< 100 µM,Cc1c(N[C@H]2CC[C@H](N)CC2)nc2ccnn2c1Nc1ccc(-c2cccc(N)c2)cc1
12,< 100 µM,Cc1c(N[C@H]2CC[C@H](N)CC2)nc2ccnn2c1Nc1ccc(-c2ccccc2F)cc1
13,< 100 µM,CCOc1ccccc1Nc1c(C)c(N[C@H]2CC[C@H](N)CC2)nc2ccnn12
14,< 100 µM,CCOc1ccc(Nc2c(C)c(N[C@H]3CC[C@H](N)CC3)nc3c(CO)cnn23)cc1
15,< 100 µM,Cc1c(N[C@H]2CC[C@H](N)CC2)nc2ccnn2c1Nc1ccc(-c2csc3ccccc23)cc1
16,< 100 µM,Cc1c(N[C@H]2CC[C@H](N)CC2)nc2ccnn2c1Nc1ccc(C(=O)c2ccccc2)cc1
17,< 100 µM,COc1cccc(Nc2c(C)c(N[C@H]3CC[C@H](N)CC3)nc3ccnn23)c1
18,< 100 µM,Cc1c(N[C@H]2CC[C@H](N)CC2)nc2ccnn2c1Nc1cccc(OCC(O)CO)c1 (stereo partly specified)
19,< 100 µM,COCc1cccc(-c2ccc(Nc3c(C)c(N[C@H]4CC[C@H](N)CC4)nc4ccnn34)cc2)c1
20,< 100 µM,Cc1c(N[C@H]2CC[C@H](N)CC2)nc2ccnn2c1Nc1ccc(-c2ccc(N(C)C)cc2)cc1
21,< 100 µM,CCOc1ccc(Nc2c(C)c(N[C@H]3CC[C@H](N)CC3)nc3c(C#N)cnn23)cc1
22,< 100 µM,CCOc1ccc(Nc2c(C)c(N[C@@H]3CN[C@@H](C(=O)O)C3)nc3ccnn23)cc1
23,< 100 µM,N[C@H]1CC[C@H](Nc2cc(Nc3ccc(F)c(Cl)c3)n3ncc(Cl)c3n2)CC1
24,< 100 µM,CCOc1ccc(Nc2c(C)c(N[C@H]3CC[C@H](N)CC3)nc3c(C(=O)Nc4cc[nH]n4)cnn23)cc1
